Laboratory results as given in patent US9999218B2, “Pest control formulations and methods of making and using same” (0903608 B.C. Ltd., priority 2011, dated 2018).
Where two headings read alike, the source gives them in different places.

Assays:
[1] = test system: adult bed bugs; format: in vivo
[2] = test system: bed bug eggs; format: in vivo, Cimex lectularius L.
Text: Immediately after infestation, and at 1-, 2-, and 3-week intervals thereafter, the numbers of hatched and unhatched eggs present in the sealed dishes were counted and compared to other Treated Groups. One egg was counted as “hatched” for every new nymph present in the petri dish when compared with the prior interval. Table 13 compares the % egg eclosion of the treated groups at the 3-week observation interval. The maximum mortality data obtained in Example 3, above, are included for comparison purposes.

[3] = test system: adult bed bugs; conditions: […] neem oil + […] named solvent in isopropanol, 4 h dried in highly-ventilated room; for Max. Mortality: observed until 14 days
Experimental: This example illustrates the dry residual pesticidal activity of formulations including neem oil and various organic solvents including alcohols, ketones, esters and carboxylic acids. […] The percent by weight of each solvent was varied to ensure a consistent molar quantity of solvent in each solution. Treated Groups for each solution were prepared by treating filter paper, 90 mm in diameter, with 1.0 mL of solution and allowing it to air dry for four hours in a highly-ventilated room. A known number of adults were added to each treated dish, four hours after treatment. Bed bug mortality was assessed immediately after infestation and at 1-hour, 2-hour, 4-hour, 6-hour, 8-hour, 10-hour, 12-hour, and 24-hour intervals, and at 24-hour intervals thereafter until 14 days after infestation. Adult bed bugs were counted dead if they were unresponsive when stimulated.

[4] = […] neem oil + […] named solvent in isopropanol, 4 h dried residue
[5] = […] neem oil + […] named solvent in isopropanol, 4 h dried residue, observed until 14 days
[6] = […] neem oil + named solvent in isopropanol, 4 h dried residue, 3 weeks after infestation

Row | SMILES | Time to Max Mortality [1, 4] [h] | Max. Mortality [1, 5] [%] | % Eclosion [2, 6] [%] | Time to Max Mortality [3] [days] | Max. Mortality [3] [%] | other results
1 | CC(O)c1ccccc1 (centres unmarked) [1-Phenylethanol] | 24 | 100 | 0 | – | – | –
2 | O=C(c1ccc(O)cc1O)c1ccc(O)cc1O [2,2′-4,4′ Tetrahydroxybenzophenone] | 24 | 100 | 0 | – | – | –
3 | CC(C)CC(O)CC(C)C [2,6-Dimethyl-4-heptanol] | – | – | – | 14 | 20 | –
4 | CCCCCCC(CO)CCCC (centres unmarked) [2-Butyl-1-octanol] | – | – | – | 8 | 100 | –
5 | CCCCC(CC)CO (centres unmarked) [2-Ethyl-1-hexanol] | – | – | 0 | – | – | Max. Mortality ([1]; in vivo): 100%; Time to Max Mortality ([1]; in vivo): 72 h
6 | CC(C)(O)c1ccccc1 [2-Phenyl-2-propanol] | – | – | – | 1 | 100 | –
7 | CC(C)O [2-Propanol (IPA), 2-Propanol] | 140 | 40 | – | – | – | –
8 | CCCCCCCCC(CO)CCCCCC (centres unmarked) [2-hexyl-1-decanol] | – | – | – | 14 | 100 | –
9 | Cc1ccc(O)c(C=O)c1 [2-hydroxy-5-methyl benzaldehyde] | – | – | – | 1 | 100 | –
10 | CC(=O)OC1CCCCC1C(C)(C)C (centres unmarked) [2-tert-Butylcyclohexylacetate] | 96 | 100 | 20 | – | – | –
11 | CC(=O)c1ccc(C)cc1C [2′,4′-Dimethylacetophenone] | 24 | 100 | 0 | – | – | –
12 | CC(=O)c1ccccc1O [2′-Hydroxyacetophenone] | – | – | – | 1 | 100 | –
13 | Cc1ccc(CO)cc1C [3,4-dimethylbenzyl alcohol] | – | – | – | 14 | 100 | –
14 | CC(=O)c1ccc(C)c(C)c1 [3′,4′-Dimethylacetophenone] | 48 | 100 | 0 | – | – | –
15 | O=C(O)c1ccc(O)cc1 [4-Hydroxy benzoic acid] | – | – | – | 1 | 100 | –
16 | Cc1cc(C(=O)O)ccc1O [4-Hydroxy-3-methyl benzoic acid] | – | – | – | 14 | 60 | –
17 | CC(=O)c1ccc(O)cc1 [4′-Hydroxyacetophenone] | – | – | – | 9 | 50 | –
18 | CCCCC(=O)c1ccc(O)cc1 [4′-Hydroxyvalerophenone] | – | – | – | 14 | 70 | –
19 | CC(=O)c1ccc(C)cc1 [4′-Methylacetophenone] | 48 | 100 | 0 | – | – | –
20 | CCC(=O)c1ccc(C)cc1 [4′-Methylpropiophenone] | 24 | 100 | 0 | – | – | –
21 | Cc1ccc(C(C)O)cc1 (stereo not drawn) [Alpha-4-dimethylbenzyl alcohol] | – | – | – | 1 | 100 | –
22 | O=Cc1ccccc1 [Benzaldehyde] | 336 | 100 | 0 | – | – | –
23 | c1ccccc1 [Benzene] | – | – | – | 14 | 40 | –
24 | O=C(O)c1ccccc1 [Benzoic acid] | – | – | 0 | – | – | Max. Mortality ([1]; in vivo): 100%; Time to Max Mortality ([1]; in vivo): 48 h
25 | OCc1ccccc1 [Benzyl alcohol] | 24 | 100 | 0 | – | – | –
26 | O=C(OCc1ccccc1)c1ccccc1 [Benzyl benzoate] | – | – | – | 8 | 100 | –
27 | COCc1ccccc1 [Benzyl methyl ether] | – | – | – | 8 | 60 | –

Row | SMILES | Time to Max Mortality [1, 4] [h] | Max. Mortality [1, 5] [%] | % Eclosion [2, 6] [%] | Time to Max Mortality [3] [days] | Max. Mortality [3] [%] | other results
28 | CCCCOc1ccccc1 [Butyl phenyl ether] | – | – | – | 6 | 100 | –
29 | CCCC(=O)c1ccccc1 [Butyrophenone] | 24 | 100 | 0 | – | – | –
30 | OC1CCCCC1 [Cyclohexanol] | 336 | 60 | 60 | – | – | –
31 | O=C1CCCCC1 [Cyclohexanone] | 240 | 50 | 40 | – | – | –
32 | O=C(c1ccccc1)C1CCCCC1 [Cyclohexyl phenyl ketone] | – | – | – | 8 | 90 | –
33 | c1ccc(COCc2ccccc2)cc1 [Dibenzyl ether] | – | – | – | 7 | 90 | –
34 | c1ccc(Oc2ccccc2)cc1 [Diphenyl ether] | – | – | – | 3 | 100 | –
35 | CCOC(C)=O [Ethyl acetate] | 336 | 30 | 100 | – | – | –
36 | CCOC(=O)c1ccccc1 [Ethyl benzoate] | – | – | – | 2 | 100 | –
37 | CCCCCC(=O)c1ccccc1 [Hexanophenone] | 140 | 100 | 0 | – | – | –
38 | CC(C)COC(=O)c1ccccc1 [Isobutyl benzoate] | – | – | – | 8 | 90 | –
39 | CC(C)C(=O)c1ccccc1 [Isobutyrophenone] | 48 | 100 | 0 | – | – | –
40 | CC(=O)C1CCCCC1 [Methylcyclohexylketone] | 264 | 70 | 80 | – | – | –
41 | Oc1ccccc1 [Phenol] | – | – | – | 1 | 100 | –
42 | CCC(=O)c1ccccc1 [Propiophenone] | 24 | 100 | 0 | – | – | –
43 | CCCOC(=O)c1ccc(O)cc1 [Propyl-4-hydroxybenzoate] | 24 | 100 | 0 | – | – | –
44 | CCCCO [Solution 1-Butanol, 1-Butanol] | – | – | – | – | – | Max. Mortality ([1]; in vivo): 40%; Time to Max Mortality ([1]; in vivo): 190 h; % Eclosion ([2]; in vivo): 100%
45 | CCCCCCCCCCO [Solution 1-Decanol, 1-Decanol] | – | – | 0 | – | – | Max. Mortality ([1]; in vivo): 100%; Time to Max Mortality ([1]; in vivo): 264 h
46 | CCCCCCO [Solution 1-Hexanol, 1-Hexanol] | – | – | 0 | – | – | Max. Mortality ([1]; in vivo): 40%; Time to Max Mortality ([1]; in vivo): 336 h
47 | CCCCCCCCCO [Solution 1-Nonanol, 1-Nonanol] | – | – | – | 2 | 100 | –
48 | CCCCCCCCCCCCO [Solution 1-dodecanol, 1-dodecanol] | – | – | – | 14 | 90 | –
49 | CCCCCCC(C)O (centres unmarked) [Solution 2-Octanol, 2-Octanol] | – | – | – | 2 | 100 | –
50 | CCCCC(O)CC (centres unmarked) [Solution 3-Heptanol, 3-Heptanol] | – | – | – | 14 | 30 | –
51 | Cc1ccccc1 [Toluene] | – | – | – | 14 | 50 | –
52 | C/C=C/c1ccc(OC)cc1 [Trans-anethole] | – | – | – | 5 | 100 | –
53 | Cc1ccc(C=O)cc1 [p-Tolualdehyde] | – | – | – | 6 | 50 | –
54 | Cc1ccc(C)cc1 [p-Xylene] | – | – | – | 14 | 30 | –
